Assay results reported in article PMC2846716 (Journal of medicinal chemistry, 2010).
Where a SMILES comes first, the peptide text is derived from it. [ ]: non-standard residue; d: D form. The star is where a group is joined. NMeW = CN[C@@H](Cc1c[nH]c2ccccc12)C(=O)O; Palmitoyl = CCCCCCCCCCCCCCCC(=O)*

Tests used:
[1] = Stability in 25% rat serum; format: in vitro ADME; settings: 25% rat serum at 37° C, 0.1M Tris-HCl pH 7.5, 20 μM peptide, up to 8 hours, HPLC
[2] = in vitro stability in rat serum; ref [5], [7]; cited from earlier work
CF-1 mice [3] = experiment: 6 Hz corneal stimulation seizure test; format: in vivo, mouse; settings: 4 mg/kg i.p.; for Primary Screening at 4 mg/kg (6 Hz, 32 mA), mice protected / tested, 15 min: challenged 15 min after administration; for Primary Screening at 4 mg/kg (6 Hz, 32 mA), mice protected / tested, 30 min: challenged 30 min after administration; for Primary Screening at 4 mg/kg (6 Hz, 32 mA), mice protected / tested, 60 min: challenged 60 min after administration; for Primary Screening at 4 mg/kg (6 Hz, 32 mA), mice protected / tested, 120 min: challenged 120 min after administration; for Primary Screening at 4 mg/kg (6 Hz, 32 mA), mice protected / tested, 240 min: challenged 240 min after administration
CF-1 mice [4] = settings: after i.p. administration; ref [5]; cited from earlier work
hGalR2 = biological target: T1, hGalR2 (Homo sapiens, UniProt O43603); format: binding; settings: relative to [N-Me, des-Sar]Gal-B2
T1 sequence (O43603 1-387): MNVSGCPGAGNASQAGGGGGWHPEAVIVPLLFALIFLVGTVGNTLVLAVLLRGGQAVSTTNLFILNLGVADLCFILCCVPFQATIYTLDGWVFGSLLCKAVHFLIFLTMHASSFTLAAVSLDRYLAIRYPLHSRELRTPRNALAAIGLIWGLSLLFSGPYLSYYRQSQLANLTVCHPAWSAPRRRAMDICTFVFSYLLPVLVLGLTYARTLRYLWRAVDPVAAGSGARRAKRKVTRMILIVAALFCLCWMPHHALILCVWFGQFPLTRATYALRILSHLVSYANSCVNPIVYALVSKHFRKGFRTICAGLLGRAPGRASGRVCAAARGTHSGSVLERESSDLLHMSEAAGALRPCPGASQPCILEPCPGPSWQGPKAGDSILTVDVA

[5] = LogD by HPLC capacity factor; format: physicochemical; settings: RP-HPLC, Vydac diphenyl column (capacity factor k')
GalR3 = settings: binding; ref [18]; cited from earlier work

CCCCCCCCCCCCCCCC(=O)NCCCC[C@H](NC(=O)[C@H](CCCCN)NC(=O)[C@H](CCCCN)NC(=O)[C@@H]1CCCN1C(=O)CNC(=O)[C@H](CC(C)C)NC(=O)[C@H](CC(C)C)NC(=O)[C@H](Cc1ccc(O)cc1)NC(=O)CNC(=O)[C@H](C)NC(=O)[C@H](CO)NC(=O)[C@H](CC(N)=O)NC(=O)[C@H](CC(C)C)NC(=O)[C@@H](NC(=O)[C@H](Cc1c[nH]c2ccccc12)NC(=O)CNC)[C@@H](C)O)C(=O)N[C@@H](CCCCN)C(N)=O [Gal-B2]
half-life in 25% rat serum [1]: 9.4 h | serum half-life in rat serum [2]: 9.4 h | Primary Screening at 4 mg/kg (6 Hz, 32 mA), mice protected / tested, 15 min (CF-1 mice [3]): 3/4 | Primary Screening at 4 mg/kg (6 Hz, 32 mA), mice protected / tested, 30 min (CF-1 mice [3]): 4/4 | Primary Screening at 4 mg/kg (6 Hz, 32 mA), mice protected / tested, 60 min (CF-1 mice [3]): 4/4 | Primary Screening at 4 mg/kg (6 Hz, 32 mA), mice protected / tested, 120 min (CF-1 mice [3]): 4/4 | Primary Screening at 4 mg/kg (6 Hz, 32 mA), mice protected / tested, 240 min (CF-1 mice [3]): 0/4 | ED50, 6 Hz corneal stimulation mouse model (CF-1 mice [4]): 0.8 mg/kg

CCCCCCCCCCCCCCCC(=O)NCCCC[C@H](NC(=O)[C@H](CCCCN)NC(=O)[C@H](CCCCN)NC(=O)[C@@H]1CCCN1C(=O)CNC(=O)[C@H](CC(C)C)NC(=O)[C@H](CC(C)C)NC(=O)[C@H](Cc1ccc(O)cc1)NC(=O)CNC(=O)[C@H](C)NC(=O)[C@H](CO)NC(=O)[C@H](CC(N)=O)NC(=O)[C@H](CC(C)C)NC(=O)[C@@H](NC(=O)[C@@H](N)Cc1c[nH]c2ccccc12)[C@@H](C)O)C(=O)N[C@@H](CCCCN)C(N)=O [Gal-B5] (H-WTLNSAGYLLGPKKK(Palmitoyl)K-NH2)
reduction of binding toward GalR2 on removal of N-terminal methyl group (hGalR2): 2 fold | Primary Screening at 4 mg/kg (6 Hz, 32 mA), mice protected / tested, 15 min (CF-1 mice [3]): 2/4 | Primary Screening at 4 mg/kg (6 Hz, 32 mA), mice protected / tested, 30 min (CF-1 mice [3]): 1/4 | Primary Screening at 4 mg/kg (6 Hz, 32 mA), mice protected / tested, 60 min (CF-1 mice [3]): 2/4 | Primary Screening at 4 mg/kg (6 Hz, 32 mA), mice protected / tested, 120 min (CF-1 mice [3]): 2/4 | Primary Screening at 4 mg/kg (6 Hz, 32 mA), mice protected / tested, 240 min (CF-1 mice [3]): 0/3 | chromatographic logD [5]: 1.22 ± 0.02

CCCCCCCCCCCCCCCC(=O)NCCCC[C@H](NC(=O)[C@H](CCCCN)NC(=O)[C@H](CCCCN)NC(=O)[C@@H]1CCCN1C(=O)CNC(=O)[C@H](CC(C)C)NC(=O)[C@H](CC(C)C)NC(=O)[C@H](Cc1ccc(O)cc1)NC(=O)CNC(=O)[C@H](C)NC(=O)[C@H](CO)NC(=O)[C@H](CC(N)=O)NC(=O)[C@H](CC(C)C)NC(=O)[C@@H](NC(=O)[C@H](Cc1c[nH]c2ccccc12)NC(C)=O)[C@@H](C)O)C(=O)N[C@@H](CCCCN)C(N)=O [[N-Ac, des-Sar]Gal-B2] (Ac-WTLNSAGYLLGPKKK(Palmitoyl)K-NH2)
chromatographic logD [5]: 1.28 ± 0.02

CCCCCCCCCCCCCCCC(=O)NCCCC[C@H](NC(=O)[C@H](CCCCN)NC(=O)[C@H](CCCCN)NC(=O)[C@@H]1CCCN1C(=O)CNC(=O)[C@H](CC(C)C)NC(=O)[C@H](CC(C)C)NC(=O)[C@H](Cc1ccc(O)cc1)NC(=O)CNC(=O)[C@H](C)NC(=O)[C@H](CO)NC(=O)[C@H](CC(N)=O)NC(=O)[C@H](CC(C)C)NC(=O)[C@@H](NC(=O)[C@H](Cc1c[nH]c2ccccc12)NC)[C@@H](C)O)C(=O)N[C@@H](CCCCN)C(N)=O [[N-Me, des-Sar]Gal-B2] (H-[NMeW]TLNSAGYLLGPKKK(Palmitoyl)K-NH2)
Primary Screening at 4 mg/kg (6 Hz, 32 mA), mice protected / tested, 15 min (CF-1 mice [3]): 0/4 | Primary Screening at 4 mg/kg (6 Hz, 32 mA), mice protected / tested, 30 min (CF-1 mice [3]): 3/4 | Primary Screening at 4 mg/kg (6 Hz, 32 mA), mice protected / tested, 60 min (CF-1 mice [3]): 3/4 | Primary Screening at 4 mg/kg (6 Hz, 32 mA), mice protected / tested, 120 min (CF-1 mice [3]): 1/4 | Primary Screening at 4 mg/kg (6 Hz, 32 mA), mice protected / tested, 240 min (CF-1 mice [3]): 0/3 | chromatographic logD [5]: 1.29 ± 0.01

CCCCCCCCCCCCCCCC(=O)NCCCC[C@H](NC(=O)[C@H](CCCCN)NC(=O)[C@H](CCCCN)NC(=O)[C@@H]1CCCN1C(=O)CNC(=O)[C@H](CC(C)C)NC(=O)[C@H](CC(C)C)NC(=O)[C@H](Cc1ccc(O)cc1)NC(=O)CNC(=O)[C@H](C)NC(=O)[C@H](CO)NC(=O)[C@H](CC(N)=O)NC(=O)[C@H](CC(C)C)NC(=O)[C@@H](NC(=O)[C@H](Cc1c[nH]c2ccccc12)NC(=O)[C@H](C)N)[C@@H](C)O)C(=O)N[C@@H](CCCCN)C(N)=O [[Sar1Ala]Gal-B2] (H-AWTLNSAGYLLGPKKK(Palmitoyl)K-NH2)
Primary Screening at 4 mg/kg (6 Hz, 32 mA), mice protected / tested, 15 min (CF-1 mice [3]): 4/4 | Primary Screening at 4 mg/kg (6 Hz, 32 mA), mice protected / tested, 30 min (CF-1 mice [3]): 4/4 | Primary Screening at 4 mg/kg (6 Hz, 32 mA), mice protected / tested, 60 min (CF-1 mice [3]): 4/4 | Primary Screening at 4 mg/kg (6 Hz, 32 mA), mice protected / tested, 120 min (CF-1 mice [3]): 1/4 | Primary Screening at 4 mg/kg (6 Hz, 32 mA), mice protected / tested, 240 min (CF-1 mice [3]): 0/4 | chromatographic logD [5]: 1.28 ± 0.01

CCCCCCCCCCCCCCCC(=O)NCCCC[C@H](NC(=O)[C@H](CCCCN)NC(=O)[C@H](CCCCN)NC(=O)[C@@H]1CCCN1C(=O)CNC(=O)[C@H](CC(C)C)NC(=O)[C@H](CC(C)C)NC(=O)[C@H](Cc1ccc(O)cc1)NC(=O)CNC(=O)[C@H](C)NC(=O)[C@H](CO)NC(=O)[C@H](CC(N)=O)NC(=O)[C@H](CC(C)C)NC(=O)[C@@H](NC(=O)[C@H](Cc1c[nH]c2ccccc12)NC(=O)CN)[C@@H](C)O)C(=O)N[C@@H](CCCCN)C(N)=O [[Sar1Gly]Gal-B2]
Primary Screening at 4 mg/kg (6 Hz, 32 mA), mice protected / tested, 15 min (CF-1 mice [3]): 1/4 | Primary Screening at 4 mg/kg (6 Hz, 32 mA), mice protected / tested, 30 min (CF-1 mice [3]): 3/4 | Primary Screening at 4 mg/kg (6 Hz, 32 mA), mice protected / tested, 60 min (CF-1 mice [3]): 3/4 | Primary Screening at 4 mg/kg (6 Hz, 32 mA), mice protected / tested, 120 min (CF-1 mice [3]): 0/4 | Primary Screening at 4 mg/kg (6 Hz, 32 mA), mice protected / tested, 240 min (CF-1 mice [3]): 0/3 | chromatographic logD [5]: 1.3 ± 0.04

WTLNSAGYLL-CONH2 [Gal(2-11)]
preference towards GalR2 above GalR3 (GalR3): 12 fold
